# Numbers after ± are expanded uncertainties.
# Settings: Liquid; for speed of sound: Pulse-echo method; for mass density: Vibrating tube method
smiles,measurement,setting,value
"CCCCCCCCCCCCCCCCCc1ccccc1 [heptadecane, 1-phenyl-]",speed of sound,"303.15 K, 100 kPa",1422.6 ± 3.5 m/s
same,mass density,"303.15 K, 100 kPa",847.62 ± 0.87 kg/m3
same,mass density,"303.15 K, 5000 kPa",850.37 ± 0.88 kg/m3
same,speed of sound,"303.15 K, 10000 kPa",1467.5 ± 3.6 m/s
same,mass density,"303.15 K, 10000 kPa",853.14 ± 0.89 kg/m3
same,mass density,"303.15 K, 15000 kPa",855.85 ± 0.89 kg/m3
same,speed of sound,"303.15 K, 20000 kPa",1510.9 ± 3.7 m/s
same,mass density,"303.15 K, 20000 kPa",858.47 ± 0.9 kg/m3
same,mass density,"303.15 K, 25000 kPa",861 ± 0.91 kg/m3
same,speed of sound,"303.15 K, 30000 kPa",1552 ± 3.8 m/s
same,mass density,"303.15 K, 30000 kPa",863.37 ± 0.91 kg/m3
same,mass density,"303.15 K, 35000 kPa",865.81 ± 0.92 kg/m3
same,speed of sound,"303.15 K, 40000 kPa",1590.5 ± 3.8 m/s
same,mass density,"303.15 K, 40000 kPa",868.19 ± 0.93 kg/m3
same,mass density,"303.15 K, 45000 kPa",870.43 ± 0.94 kg/m3
same,speed of sound,"303.15 K, 50000 kPa",1627.2 ± 3.9 m/s
same,mass density,"303.15 K, 50000 kPa",872.65 ± 0.95 kg/m3
same,mass density,"303.15 K, 55000 kPa",874.7 ± 0.96 kg/m3
same,speed of sound,"303.15 K, 60000 kPa",1661.9 ± 3.9 m/s
same,mass density,"303.15 K, 60000 kPa",876.93 ± 0.97 kg/m3
same,speed of sound,"303.15 K, 70000 kPa",1695.6 ± 4 m/s
same,speed of sound,"313.15 K, 100 kPa",1387.1 ± 3.5 m/s
same,mass density,"313.15 K, 100 kPa",840.87 ± 0.87 kg/m3
same,mass density,"313.15 K, 5000 kPa",843.75 ± 0.87 kg/m3
same,speed of sound,"313.15 K, 10000 kPa",1433.6 ± 3.6 m/s
same,mass density,"313.15 K, 10000 kPa",846.65 ± 0.88 kg/m3
same,mass density,"313.15 K, 15000 kPa",849.47 ± 0.89 kg/m3
same,speed of sound,"313.15 K, 20000 kPa",1479.2 ± 3.6 m/s
same,mass density,"313.15 K, 20000 kPa",852.17 ± 0.89 kg/m3
same,mass density,"313.15 K, 25000 kPa",854.73 ± 0.9 kg/m3
same,speed of sound,"313.15 K, 30000 kPa",1520.4 ± 3.7 m/s
same,mass density,"313.15 K, 30000 kPa",857.38 ± 0.91 kg/m3
same,mass density,"313.15 K, 35000 kPa",859.9 ± 0.92 kg/m3
same,speed of sound,"313.15 K, 40000 kPa",1559.7 ± 3.8 m/s
same,mass density,"313.15 K, 40000 kPa",862.24 ± 0.93 kg/m3
same,mass density,"313.15 K, 45000 kPa",864.56 ± 0.94 kg/m3
same,speed of sound,"313.15 K, 50000 kPa",1597.9 ± 3.8 m/s
same,mass density,"313.15 K, 50000 kPa",866.8 ± 0.95 kg/m3
same,mass density,"313.15 K, 55000 kPa",869.08 ± 0.96 kg/m3
same,speed of sound,"313.15 K, 60000 kPa",1633.6 ± 3.9 m/s
same,mass density,"313.15 K, 60000 kPa",870.6 ± 0.97 kg/m3
same,speed of sound,"313.15 K, 70000 kPa",1667.3 ± 4 m/s
same,speed of sound,"313.15 K, 80000 kPa",1700 ± 4 m/s
same,speed of sound,"313.15 K, 90000 kPa",1731.8 ± 4.1 m/s
same,speed of sound,"313.15 K, 100000 kPa",1762 ± 4.1 m/s
same,speed of sound,"313.15 K, 110000 kPa",1790.2 ± 4.2 m/s
same,speed of sound,"313.15 K, 120000 kPa",1818.7 ± 4.2 m/s
same,speed of sound,"313.15 K, 130000 kPa",1847.1 ± 4.3 m/s
same,speed of sound,"323.15 K, 100 kPa",1352.6 ± 3.4 m/s
same,mass density,"323.15 K, 100 kPa",834.27 ± 0.86 kg/m3
same,mass density,"323.15 K, 5000 kPa",837.23 ± 0.87 kg/m3
same,speed of sound,"323.15 K, 10000 kPa",1402.3 ± 3.5 m/s
same,mass density,"323.15 K, 10000 kPa",840.29 ± 0.87 kg/m3
same,mass density,"323.15 K, 15000 kPa",843.15 ± 0.88 kg/m3
same,speed of sound,"323.15 K, 20000 kPa",1447.9 ± 3.6 m/s
same,mass density,"323.15 K, 20000 kPa",845.93 ± 0.89 kg/m3
same,mass density,"323.15 K, 25000 kPa",848.7 ± 0.9 kg/m3
same,speed of sound,"323.15 K, 30000 kPa",1490.8 ± 3.7 m/s
same,mass density,"323.15 K, 30000 kPa",851.34 ± 0.91 kg/m3
same,mass density,"323.15 K, 35000 kPa",853.89 ± 0.92 kg/m3
same,speed of sound,"323.15 K, 40000 kPa",1531.1 ± 3.7 m/s
same,mass density,"323.15 K, 40000 kPa",856.43 ± 0.93 kg/m3
same,mass density,"323.15 K, 45000 kPa",858.84 ± 0.94 kg/m3
same,speed of sound,"323.15 K, 50000 kPa",1569.2 ± 3.8 m/s
same,mass density,"323.15 K, 50000 kPa",861.35 ± 0.95 kg/m3
same,mass density,"323.15 K, 55000 kPa",863.55 ± 0.96 kg/m3
same,speed of sound,"323.15 K, 60000 kPa",1605.8 ± 3.9 m/s
same,mass density,"323.15 K, 60000 kPa",865.8 ± 0.97 kg/m3
same,speed of sound,"323.15 K, 70000 kPa",1640.7 ± 3.9 m/s
same,speed of sound,"323.15 K, 80000 kPa",1673.9 ± 4 m/s
same,speed of sound,"323.15 K, 90000 kPa",1705.8 ± 4 m/s
same,speed of sound,"323.15 K, 100000 kPa",1736.6 ± 4.1 m/s
same,speed of sound,"323.15 K, 110000 kPa",1766.3 ± 4.1 m/s
same,speed of sound,"323.15 K, 120000 kPa",1794.9 ± 4.2 m/s
same,speed of sound,"323.15 K, 130000 kPa",1822.8 ± 4.2 m/s
same,speed of sound,"323.15 K, 140000 kPa",1849.3 ± 4.3 m/s
same,speed of sound,"323.15 K, 150000 kPa",1875.5 ± 4.3 m/s
same,speed of sound,"333.15 K, 100 kPa",1319.9 ± 3.4 m/s
same,mass density,"333.15 K, 100 kPa",827.59 ± 0.86 kg/m3
same,mass density,"333.15 K, 5000 kPa",830.84 ± 0.86 kg/m3
same,speed of sound,"333.15 K, 10000 kPa",1370.2 ± 3.5 m/s
same,mass density,"333.15 K, 10000 kPa",833.94 ± 0.87 kg/m3
same,mass density,"333.15 K, 15000 kPa",837.13 ± 0.88 kg/m3
same,speed of sound,"333.15 K, 20000 kPa",1417.3 ± 3.5 m/s
same,mass density,"333.15 K, 20000 kPa",839.97 ± 0.89 kg/m3
same,mass density,"333.15 K, 25000 kPa",842.84 ± 0.89 kg/m3
same,speed of sound,"333.15 K, 30000 kPa",1461.4 ± 3.6 m/s
same,mass density,"333.15 K, 30000 kPa",845.52 ± 0.9 kg/m3
same,mass density,"333.15 K, 35000 kPa",848.14 ± 0.91 kg/m3
same,speed of sound,"333.15 K, 40000 kPa",1502.9 ± 3.7 m/s
same,mass density,"333.15 K, 40000 kPa",850.62 ± 0.93 kg/m3
same,mass density,"333.15 K, 45000 kPa",853.3 ± 0.94 kg/m3
same,speed of sound,"333.15 K, 50000 kPa",1542.1 ± 3.7 m/s
same,mass density,"333.15 K, 50000 kPa",855.69 ± 0.95 kg/m3
same,mass density,"333.15 K, 55000 kPa",858 ± 0.96 kg/m3
same,speed of sound,"333.15 K, 60000 kPa",1579.2 ± 3.8 m/s
same,mass density,"333.15 K, 60000 kPa",860.35 ± 0.97 kg/m3
same,speed of sound,"333.15 K, 70000 kPa",1614.6 ± 3.9 m/s
same,speed of sound,"333.15 K, 80000 kPa",1648.7 ± 3.9 m/s
same,speed of sound,"333.15 K, 90000 kPa",1681.3 ± 4 m/s
same,speed of sound,"333.15 K, 100000 kPa",1712.2 ± 4 m/s
same,speed of sound,"333.15 K, 110000 kPa",1742.3 ± 4.1 m/s
same,speed of sound,"333.15 K, 120000 kPa",1771.7 ± 4.1 m/s
same,speed of sound,"333.15 K, 130000 kPa",1799.8 ± 4.2 m/s
same,speed of sound,"333.15 K, 140000 kPa",1826.9 ± 4.2 m/s
same,speed of sound,"333.15 K, 150000 kPa",1853.6 ± 4.3 m/s
same,speed of sound,"343.15 K, 100 kPa",1287 ± 3.3 m/s
same,mass density,"343.15 K, 100 kPa",820.95 ± 0.85 kg/m3
same,mass density,"343.15 K, 5000 kPa",824.32 ± 0.86 kg/m3
same,speed of sound,"343.15 K, 10000 kPa",1338.7 ± 3.4 m/s
same,mass density,"343.15 K, 10000 kPa",827.71 ± 0.86 kg/m3
